Assay results: PubChem BioAssay AID248 (DTP/NCI, 2004)
Where “and” joins values, the source holds several entries; their conditions need not be identical. Identical values can stand only once. Inconclusive results and toxic doses are left out. Rule as the data show it: active = T/C of 150% or more; inactive = T/C below 125%.

Test system: L1210 leukemia ip in BDF1 mice, survival T/C
Assay: NCI In Vivo Anticancer Drug Screen. Data for tumor model L1210 Leukemia (intraperitoneal) in B6D2F1 (BDF1) mice
Details: endpoint: mean survival time, higher = longer survival
Outline: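 Antitumor effect is assessed in tumor-bearing animals. Survival in the compound arm is compared with a vehicle-dosed control arm and expressed as their quotient.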

[1] = dose: 50.0 mg/kg/injection, schedule: Q01DX001 (ip), vehicle: saline
[2] = dose: 400.0 mg/kg/injection, schedule: Q01DX001 (ip), vehicle: carboxymethylcellulose (CMC)

Measured: T/C

CC(=O)Nc1nncs1
inactive: dose: 7.0 mg/kg/injection, schedule: Q03HX032 (ip), vehicle: saline with Tween-80 105 % of control | dose: 11.0 mg/kg/injection, schedule: Q03HX032 (ip), vehicle: saline with Tween-80 108 % of control | dose: 16.0 mg/kg/injection, schedule: Q03HX032 (ip), vehicle: saline with Tween-80 107 % of control | dose: 24.0 mg/kg/injection, schedule: Q03HX032 (ip), vehicle: saline with Tween-80 101 % of control | dose: 27.0 mg/kg/injection, schedule: Q01DX015 (ip), vehicle: saline with Tween-80 109 % of control | dose: 31.0 mg/kg/injection, schedule: Q01DX015 (ip), vehicle: carboxymethylcellulose (CMC) 96 % of control | dose: 36.0 mg/kg/injection, schedule: Q03HX032 (ip), vehicle: saline with Tween-80 108 % of control | dose: 40.0 mg/kg/injection, schedule: Q01DX015 (ip), vehicle: saline with Tween-80 95 % of control | [1] 112 % of control | dose: 60.0 mg/kg/injection, schedule: Q01DX015 (ip), vehicle: saline with Tween-80 97 % of control | dose: 62.0 mg/kg/injection, schedule: Q01DX015 (ip), vehicle: carboxymethylcellulose (CMC) 102 % of control | dose: 90.0 mg/kg/injection, schedule: Q01DX015 (ip), vehicle: saline with Tween-80 101 % of control | dose: 100.0 mg/kg/injection, schedule: Q01DX001 (ip), vehicle: saline 115 % of control | dose: 135.0 mg/kg/injection, schedule: Q01DX015 (ip), vehicle: saline with Tween-80 95 % of control | dose: 200.0 mg/kg/injection, schedule: Q01DX001 (ip), vehicle: saline 112 % of control | dose: 248.0 mg/kg/injection, schedule: Q01DX015 (ip), vehicle: carboxymethylcellulose (CMC) 98 % of control | dose: 270.0 mg/kg/injection, schedule: Q01DX001 (ip), vehicle: saline with Tween-80 101 % of control | dose: 400.0 mg/kg/injection, schedule: Q01DX001 (ip), vehicle: saline with Tween-80 109 % of control | dose: 400.0 mg/kg/injection, schedule: Q01DX001 (ip), vehicle: saline 106 % of control | dose: 600.0 mg/kg/injection, schedule: Q01DX001 (ip), vehicle: saline with Tween-80 112 % of control | dose: 900.0 mg/kg/injection, schedule: Q01DX001 (ip), vehicle: saline with Tween-80 109 % of control | dose: 1350.0 mg/kg/injection, schedule: Q01DX001 (ip), vehicle: saline with Tween-80 120 % of control

CC1=C(N)C(=O)C2=C(C1=O)N1CC3C(N3C)C1(O)C2COC(N)=O (stereo not given)
inactive: dose: 15.0 mg/kg/injection, schedule: Q01DX001 (ip), vehicle: acetone 111 % of control | dose: 23.0 mg/kg/injection, schedule: Q01DX001 (ip), vehicle: acetone 109 % of control | dose: 35.0 mg/kg/injection, schedule: Q01DX001 (ip), vehicle: saline 111 % of control | dose: 50.0 mg/kg/injection, schedule: Q01DX001 (ip), vehicle: acetone 108 % of control | [1] 118 % of control

Cc1ccc(C)c(NC(=O)NC2CCCCC2)c1
inactive: dose: 100.0 mg/kg/injection, schedule: Q04DX002 (ip), vehicle: saline 101 % of control | dose: 200.0 mg/kg/injection, schedule: Q04DX002 (ip), vehicle: saline 97 % of control | dose: 400.0 mg/kg/injection, schedule: Q04DX002 (ip), vehicle: saline 103 % of control

COc1ccc(OC)c([N+](=O)[O-])c1C=O
inactive: dose: 100.0 mg/kg/injection, schedule: Q01DX001 (ip), vehicle: other 92 % of control | dose: 200.0 mg/kg/injection, schedule: Q01DX001 (ip), vehicle: other 90 % of control | dose: 400.0 mg/kg/injection, schedule: Q01DX001 (ip), vehicle: other 90 % of control

N#Cc1ccc[nH]1
inactive: dose: 100.0 mg/kg/injection, schedule: Q01DX001 (sc), vehicle: carboxymethylcellulose (CMC) 121 % of control | dose: 177.0 mg/kg/injection, schedule: Q01DX001 (ip), vehicle: carboxymethylcellulose (CMC) 108 % of control | dose: 200.0 mg/kg/injection, schedule: Q01DX001 (sc), vehicle: carboxymethylcellulose (CMC) 110 % of control | dose: 266.0 mg/kg/injection, schedule: Q01DX001 (ip), vehicle: carboxymethylcellulose (CMC) 96 % of control | [2] 102 % of control

CC(C)C(O)C1(C)CC1 (stereo not given)
inactive: dose: 100.0 mg/kg/injection, schedule: Q01DX009 (ip), vehicle: saline with Tween-80 96 % of control | dose: 100.0 mg/kg/injection, schedule: Q04DX003 (ip), vehicle: saline 106 % of control | dose: 200.0 mg/kg/injection, schedule: Q01DX009 (ip), vehicle: saline with Tween-80 95 % of control | dose: 200.0 mg/kg/injection, schedule: Q04DX003 (ip), vehicle: saline 107 % of control | dose: 400.0 mg/kg/injection, schedule: Q04DX003 (ip), vehicle: saline 111 % of control

CCN(CC)CCCN1C(=O)c2ccccc2S1(=O)=O
inactive: dose: 44.0 mg/kg/injection, schedule: Q01DX Z (ip), vehicle: saline 102 % of control | dose: 66.0 mg/kg/injection, schedule: Q01DX Z (ip), vehicle: saline 102 % of control | dose: 100.0 mg/kg/injection, schedule: Q01DX Z (ip), vehicle: saline 108 % of control

O=C1OC(=O)c2ccc(SCC(O)CCl)c3cccc1c23 (stereo not given)
inactive: dose: 25.0 mg/kg/injection, schedule: Q01DX009 (ip), vehicle: other 98 % of control | dose: 50.0 mg/kg/injection, schedule: Q01DX009 (ip), vehicle: other 93 % of control | dose: 100.0 mg/kg/injection, schedule: Q01DX009 (ip), vehicle: other 93 % of control and 109 % of control

O=C(O)CNCCN1CC(=O)N(Cc2ccccc2)C1=S
inactive: dose: 100.0 mg/kg/injection, schedule: Q01DX001 (ip), vehicle: carboxymethylcellulose (CMC) 100 % of control | dose: 100.0 mg/kg/injection, schedule: Q01DX009 (ip), vehicle: carboxymethylcellulose (CMC) 104 % of control | dose: 100.0 mg/kg/injection, schedule: Q04DX002 (ip), vehicle: carboxymethylcellulose (CMC) 94 % of control and 103 % of control | dose: 100.0 mg/kg/injection, schedule: Q04DX003 (ip), vehicle: carboxymethylcellulose (CMC) 100 % of control | dose: 200.0 mg/kg/injection, schedule: Q01DX001 (ip), vehicle: carboxymethylcellulose (CMC) 103 % of control | dose: 200.0 mg/kg/injection, schedule: Q01DX009 (ip), vehicle: carboxymethylcellulose (CMC) 93 % of control and 101 % of control | dose: 200.0 mg/kg/injection, schedule: Q04DX002 (ip), vehicle: carboxymethylcellulose (CMC) 103 % of control and 88 % of control | dose: 200.0 mg/kg/injection, schedule: Q04DX003 (ip), vehicle: carboxymethylcellulose (CMC) 98 % of control | [2] 101 % of control | dose: 400.0 mg/kg/injection, schedule: Q01DX009 (ip), vehicle: carboxymethylcellulose (CMC) 96 % of control | dose: 400.0 mg/kg/injection, schedule: Q04DX002 (ip), vehicle: carboxymethylcellulose (CMC) 98 % of control and 103 % of control

C=CCSc1nc2c(=O)[nH]c(N)nc2n1C1OC(CO)C(O)C1O (stereo not given)
inactive: dose: 100.0 mg/kg/injection, schedule: Q01DX005 (ip), vehicle: saline 100 % of control | dose: 200.0 mg/kg/injection, schedule: Q01DX005 (ip), vehicle: saline 103 % of control

OC[CH2][Hg][I]
inactive: dose: 1.56 mg/kg/injection, schedule: Q01DX009 (ip), vehicle: Klucel (hydroxypropylcellulose) (HPC) 88 % of control | dose: 6.25 mg/kg/injection, schedule: Q01DX009 (ip), vehicle: Klucel (hydroxypropylcellulose) (HPC) 93 % of control

O=c1oc2ccccc2c(O)c1C(C/C(=N/O)c1ccccc1)c1ccccc1 (stereo not given)
inactive: dose: 100.0 mg/kg/injection, schedule: Q04DX003 (ip), vehicle: saline with Tween-80 96 % of control | dose: 200.0 mg/kg/injection, schedule: Q04DX003 (ip), vehicle: saline with Tween-80 91 % of control | dose: 400.0 mg/kg/injection, schedule: Q04DX003 (ip), vehicle: saline with Tween-80 88 % of control

Cc1ccc(C)c(CCCCS(N)(=O)=O)c1
inactive: dose: 100.0 mg/kg/injection, schedule: Q04DX003 (ip), vehicle: Klucel (hydroxypropylcellulose) (HPC) 100 % of control | dose: 200.0 mg/kg/injection, schedule: Q04DX003 (ip), vehicle: Klucel (hydroxypropylcellulose) (HPC) 104 % of control | dose: 400.0 mg/kg/injection, schedule: Q04DX003 (ip), vehicle: Klucel (hydroxypropylcellulose) (HPC) 100 % of control
